# Measurements from ChEMBL document CHEMBL5120940, “Indolactam Dipeptides as Nanomolar Gli Inhibitors” (ACS Med Chem Lett, 2022).
# Activity calls are given as the source filed them. No cut-off for these calls is given here.
# Columns and labels:
# Assay type in all cases: cell-based
# NIH/3T3 = assay: Inhibition of GLI in mouse NIH/3T3 cells assessed as reduction in CMV-driven firefly luciferase activity in starvation medium at 100 nM incubated for 30 hrs by Bright-Glo luciferase assay
# ASZ001 = assay: Inhibition of GLI in mouse ASZ001 cells assessed as reduction in cell viability in starvation medium at 1.5 uM incubated for 48 hrs by CellTiter assay relative to control
# Shh Light II = assay: Inhibition of GLI in SAG induced mouse Shh Light II cells assessed as residual Smo-dependent Gli luciferase activity in starvation medium at 100 nM incubated for 30 hrs by dual luciferase assay
# [1] = Inhibition of GLI in SAG induced mouse C3H10T1/2 cells assessed reduction Gli-dependent differentiation by measuring ALP activity incubated for 48 hrs by chemiluminescence assay; details: C3H 10T1/2, 48 h
# [2] = Inhibition of GLI in SAG induced mouse Shh Light II cells assessed as residual Smo-dependent Gli luciferase activity in starvation medium incubated for 30 hrs by dual luciferase assay
# [3] = Inhibition of GLI in SAG induced mouse Sufu-KO-LIGHT cells assessed as residual Smo-independent Gli luciferase activity in starvation medium incubated for 30 hrs by dual luciferase assay
# Sufu-KO-LIGHT = assay: Inhibition of GLI in SAG induced mouse Sufu-KO-LIGHT cells assessed as residual Smo-independent Gli luciferase activity in starvation medium at 100 nM incubated for 30 hrs by dual luciferase assay
# [4] = Inhibition of GLI in mouse ASZ001 cells assessed as reduction in cell viability in starvation medium incubated for 48 hrs by CellTiter assay; details: ASZ001, 48 h
SMILES,IC50 [1] [nM],IC50 [2] [nM],IC50 [3] [nM],Activity (NIH/3T3),inhibition (ASZ001) [%],Activity (Shh Light II) [%],Activity (Sufu-KO-LIGHT) [%],IC50 [4] [nM]
CC(C)[C@H]1C(=O)N[C@H](CO)Cc2c[nH]c3cccc(c23)N1C [INDOLACTUM],171,33,13,Active,62,68,39,–
COC(=O)[C@@H]1Cc2c[nH]c3cccc(c23)N(C)[C@@H](C(C)C)C(=O)N1,–,3460,77,–,–,99,67,–
CCC(C)[C@H]1C(=O)N[C@H](CO)Cc2c[nH]c3cccc(c23)N1C (some centres not stated),30,33,6.8,Active,–,53,36,–
CC(C)[C@H]1C(=O)N[C@H](CO)Cc2cc(NC(=O)/C=C/C=C/c3ccc(C(F)(F)F)cc3)ccc2N1C (stereo in doubt),–,–,–,–,–,–,–,0.16
CC(C)[C@H]1C(=O)N[C@H](CO)Cc2c[nH]c3c(Br)ccc(c23)N1C,–,1280,264,–,–,70,23,–
CC(C)[C@H]1C(=O)N[C@@H](CO)Cc2c[nH]c3cccc(c23)N1C,> 5000,> 5000,1920,–,–,100,78,–
C=CC(C)(C)c1ccc2c3c(c[nH]c13)C[C@@H](CO)NC(=O)[C@H](C(C)C)N2C [PENDOLMYCIN],–,> 5000,> 5000,–,–,60,46,–
CS(=O)(=O)c1ccc(C(=O)Nc2ccc(Cl)c(-c3ccccn3)c2)c(Cl)c1 [VISMODEGIB],58,37,> 5000,–,–,43,96,2
CCCCCCn1cc2c3c(cccc31)N(C)[C@@H](C(C)C)C(=O)N[C@H](CO)C2,27,113,7.9,Active,38,83,25,0.5
C=C[C@@](C)(CCC=C(C)C)c1ccc2c3c(c[nH]c13)C[C@@H](CO)NC(=O)[C@H](C(C)C)N2C,–,> 5000,> 5000,–,–,90,47,–

# More lines, main results first:
IC50 [1] [nM],IC50 [2] [nM],IC50 [3] [nM],SMILES,Activity (NIH/3T3),inhibition (ASZ001) [%],Activity (Shh Light II) [%],Activity (Sufu-KO-LIGHT) [%],IC50 [4] [nM]
–,195,655,CC(=O)n1cc2c3c(cccc31)N(C)[C@@H](C(C)C)C(=O)N[C@H](CO)C2,–,–,73,67,–
–,309,464,CC(C)[C@H]1C(=O)N[C@H](CO)Cc2cn(C(C)C)c3cccc(c23)N1C,–,–,96,78,–
–,478,1820,COC[C@@H]1Cc2cn(C)c3cccc(c23)N(C)[C@@H](C(C)C)C(=O)N1,–,–,86,69,–
498,69,20,CC(C)[C@H]1C(=O)N[C@H](CO)Cc2cn(C)c3cccc(c23)N1C,Active,–,66,42,–
